Data reported in US20200206198A1, “CFTR CHANNEL ACTIVATOR FOR USE IN THE TREATMENT AND/OR PREVENTION OF GLUTEN SENSITIVITY CONDITIONS” (priority 2017, published 2020).

Columns and labels:
CFTR = target: T1, CFTR (Homo sapiens, UniProt P13569); assay: Co-immunoprecipitation of biotinylated peptides with CFTR in Caco-2 cells; type: cell-based
T1 construct: Immunoprecipitations of endogenous proteins were performed on 500 μg of lysates from Caco-2 cells; host or cells: Caco-2, T84
Method: Human colon adenocarcinoma-derived Caco-2 and T84 cells were obtained from the ATCC. Cells were maintained in T25 flask in Modified Eagle Medium (MEM) for Caco-2, or Ham's F12+DMEM (1:1) for T84, supplemented with 10% fetal bovine serum (FBS), 2 mM Glutamine+1% Non Essential Amino Acids (NEAA) and the antibiotics penicillin\streptomycin (100 units/ml) (all reagents from Lonza) (Luciani, A., et al. 2010. Cells were grown in Transwells (Corning, 3470 or 3460) under the normal condition (Luciani, A., et al. 2012). Briefly, 8×10^4 or 5×10^5 cells were seeded in 6.5-mm diameter or 12-mm diameter, respectively, and grown until the RT reached 800 to 1,200 Ω·cm2. Transwells with a pore size of 0.4 μm were used. Medium in both the apical and basolateral chambers was changed every other day. […] Cells were also treated with 50 or 100 μg/ml of P57-68 or PGAV peptides for 3 h. Caco-2 or T84 cells were also treated with: CFTR potentiators VX-770 (10 μM) or VX-532 (20 μM) (Selleck chemicals) or Genistein (10 μM) (Sigma-Aldrich) or in presence or absence of CFTR inhibitor172 (CFTRinh172, 20 μM) or 3-methyl-adenine (3-MA, 20 μM) (Calbiochem), Z-DON (20 nM, Zedira) or BAPTA-AM (10 μM, Calbiochem).
The whole lysate or membrane fraction proteins of cell lines and mice intestine homogenates were obtained from treated and untreated cells or mice as described. The equal amount of protein were resolved by SDS-PAGE gel and blotted with antibodies against: SQSTM1, (Sigma Aldrich, 108k4767) 1:1000, PPARγ (Santa Cruz Biotechnology, sc7273) 1:500, BECN1 (Abcam, ab58878) 1:1000, CFTR clone M3A7 (Abcam, ab4067) 1:500, phospho-ERK1/2 (php42/44, Cell Signaling Technology, #91101) 1:1000, UVRAG (Santa Cruz Biotechnology sc8215) 1:1000, NHERF-1 (BD, 611161) 1:1000, EZRIN (BD, 610603) 1:1000, hVps34 (SigmaV9764) 1:300, biotin (Abcam, ab1227) 1:2000, PKAr2a (BD, 610625) 1:500, Ubiquitin (Cell Signaling clone P4D1, #3936) 1:1000, CHIP (Calbiochem PC711) 1:500, Caspase-1 p10 (M-20) (Santa Cruz Biotechnology, sc-514) 1:200, NLRP3 (Abcam, ab4207), 1:500, IDO1 (monoclonal; cv152) 1:1000^[80], used as primary antibodies. Normalization was performed by probing the membrane with anti-β-actin (Cell Signaling, #4970) 1:1000, anti-Gapdh (Sigma-Aldrich, G8795) 1:1000 and anti-flottilin (Abcam ab15148) 1:1000 antibodies. Immunoprecipitations of endogenous proteins were performed on 500 μg of lysates from Caco-2 cells. The proteins were incubated for 12-18 h at 4° C. with 10 ug\ml of specific antibody followed by the addition of Protein A/G-agarose beads for 4 h at 4° C. The beads were then washed three times with lysis buffer and Laemmli's sample buffer was added to the samples. The membranes were then blotted with: CFTR clone CF3 (Abcam, ab2784) 1:1000, TG2 (clone CUB7402; NeoMarkers) 1:1000, CHIP (Calbiochem PC711) 1:500, Ubiquitin (Cell Signaling clone P4D1 3936), isopeptide (Abcam 422) 1:1000, PKAR2 (BD 610625) 1:500.
For detection of complex with biotnylated-P31-43 or immune-complex of glutamime-lysine bonds, the beads were resolved in non-reducing and non-denaturating conditions, and then blotted with Streptavidin-HRP (Sigma 52438) 1:3000 or anti-biotin (Abcam ab2103) 1:2500 and anti-isopeptide (Abcam 422) 1:1000.
The separation of endosomal fractions was performed as described^9 from treated and untreated cells. Protein of endosomal fraction were resolved by SDS-Page and blotted with primary antibodies against Rab-5(Abcam 18211) 1:500, Rab-7(Abcam 77993) 1:500, EEA-1 (Abcam 2900) 1:500, TG2 or CFTR. EEA-1 was used as early endosome marker. For detection of complex with biotnylated-P31-43, the beads were resolved in non-reducing and non-denaturating conditions, and then blotted with Streptavidin-HRP (Sigma S2438) 1:3000 or anti-biotin (Abcam ab2103) 1:2500.

Caco-2 cells = assay: Endosomal trafficking proteins in Caco-2 cells (immunoblot, endosomal fractions); type: cell-based, human
Method: Human colon adenocarcinoma-derived Caco-2 and T84 cells were obtained from the ATCC. Cells were maintained in T25 flask in Modified Eagle Medium (MEM) for Caco-2, or Ham's F12+DMEM (1:1) for T84, supplemented with 10% fetal bovine serum (FBS), 2 mM Glutamine+1% Non Essential Amino Acids (NEAA) and the antibiotics penicillin\streptomycin (100 units/ml) (all reagents from Lonza) (Luciani, A., et al. 2010. Cells were grown in Transwells (Corning, 3470 or 3460) under the normal condition (Luciani, A., et al. 2012). Briefly, 8×10^4 or 5×10^5 cells were seeded in 6.5-mm diameter or 12-mm diameter, respectively, and grown until the RT reached 800 to 1,200 Ω·cm2. Transwells with a pore size of 0.4 μm were used. Medium in both the apical and basolateral chambers was changed every other day. Cells were treated with 20 μg/ml of either α-gliadin peptide P31-43 or […] or scrambled PGAV or modified P31-43 either biotin-tagged or not, for different time point (from 1 h short challenge up to 24 h). Cells were also treated with 50 or 100 μg/ml of P57-68 or PGAV peptides for 3 h. Caco-2 or T84 cells were also treated with: CFTR potentiators VX-770 (10 μM) or VX-532 (20 μM) (Selleck chemicals) or Genistein (10 μM) (Sigma-Aldrich) or in presence or absence of CFTR inhibitor172 (CFTRinh172, 20 μM) or 3-methyl-adenine (3-MA, 20 μM) (Calbiochem), Z-DON (20 nM, Zedira) or BAPTA-AM (10 μM, Calbiochem).
The whole lysate or membrane fraction proteins of cell lines and mice intestine homogenates were obtained from treated and untreated cells or mice as described. The equal amount of protein were resolved by SDS-PAGE gel and blotted with antibodies against: SQSTM1, (Sigma Aldrich, 108k4767) 1:1000, PPARγ (Santa Cruz Biotechnology, sc7273) 1:500, BECN1 (Abcam, ab58878) 1:1000, CFTR clone M3A7 (Abcam, ab4067) 1:500, phospho-ERK1/2 (php42/44, Cell Signaling Technology, #91101) 1:1000, UVRAG (Santa Cruz Biotechnology sc8215) 1:1000, NHERF-1 (BD, 611161) 1:1000, EZRIN (BD, 610603) 1:1000, hVps34 (SigmaV9764) 1:300, biotin (Abcam, ab1227) 1:2000, PKAr2a (BD, 610625) 1:500, Ubiquitin (Cell Signaling clone P4D1, #3936) 1:1000, CHIP (Calbiochem PC711) 1:500, Caspase-1 p10 (M-20) (Santa Cruz Biotechnology, sc-514) 1:200, NLRP3 (Abcam, ab4207), 1:500, IDO1 (monoclonal; cv152) 1:1000^[80], used as primary antibodies. Normalization was performed by probing the membrane with anti-β-actin (Cell Signaling, #4970) 1:1000, anti-Gapdh (Sigma-Aldrich, G8795) 1:1000 and anti-flottilin (Abcam ab15148) 1:1000 antibodies. Immunoprecipitations of endogenous proteins were performed on 500 μg of lysates from Caco-2 cells. The proteins were incubated for 12-18 h at 4° C. with 10 ug\ml of specific antibody followed by the addition of Protein A/G-agarose beads for 4 h at 4° C. […]

T1 sequence (P13569 whole entry): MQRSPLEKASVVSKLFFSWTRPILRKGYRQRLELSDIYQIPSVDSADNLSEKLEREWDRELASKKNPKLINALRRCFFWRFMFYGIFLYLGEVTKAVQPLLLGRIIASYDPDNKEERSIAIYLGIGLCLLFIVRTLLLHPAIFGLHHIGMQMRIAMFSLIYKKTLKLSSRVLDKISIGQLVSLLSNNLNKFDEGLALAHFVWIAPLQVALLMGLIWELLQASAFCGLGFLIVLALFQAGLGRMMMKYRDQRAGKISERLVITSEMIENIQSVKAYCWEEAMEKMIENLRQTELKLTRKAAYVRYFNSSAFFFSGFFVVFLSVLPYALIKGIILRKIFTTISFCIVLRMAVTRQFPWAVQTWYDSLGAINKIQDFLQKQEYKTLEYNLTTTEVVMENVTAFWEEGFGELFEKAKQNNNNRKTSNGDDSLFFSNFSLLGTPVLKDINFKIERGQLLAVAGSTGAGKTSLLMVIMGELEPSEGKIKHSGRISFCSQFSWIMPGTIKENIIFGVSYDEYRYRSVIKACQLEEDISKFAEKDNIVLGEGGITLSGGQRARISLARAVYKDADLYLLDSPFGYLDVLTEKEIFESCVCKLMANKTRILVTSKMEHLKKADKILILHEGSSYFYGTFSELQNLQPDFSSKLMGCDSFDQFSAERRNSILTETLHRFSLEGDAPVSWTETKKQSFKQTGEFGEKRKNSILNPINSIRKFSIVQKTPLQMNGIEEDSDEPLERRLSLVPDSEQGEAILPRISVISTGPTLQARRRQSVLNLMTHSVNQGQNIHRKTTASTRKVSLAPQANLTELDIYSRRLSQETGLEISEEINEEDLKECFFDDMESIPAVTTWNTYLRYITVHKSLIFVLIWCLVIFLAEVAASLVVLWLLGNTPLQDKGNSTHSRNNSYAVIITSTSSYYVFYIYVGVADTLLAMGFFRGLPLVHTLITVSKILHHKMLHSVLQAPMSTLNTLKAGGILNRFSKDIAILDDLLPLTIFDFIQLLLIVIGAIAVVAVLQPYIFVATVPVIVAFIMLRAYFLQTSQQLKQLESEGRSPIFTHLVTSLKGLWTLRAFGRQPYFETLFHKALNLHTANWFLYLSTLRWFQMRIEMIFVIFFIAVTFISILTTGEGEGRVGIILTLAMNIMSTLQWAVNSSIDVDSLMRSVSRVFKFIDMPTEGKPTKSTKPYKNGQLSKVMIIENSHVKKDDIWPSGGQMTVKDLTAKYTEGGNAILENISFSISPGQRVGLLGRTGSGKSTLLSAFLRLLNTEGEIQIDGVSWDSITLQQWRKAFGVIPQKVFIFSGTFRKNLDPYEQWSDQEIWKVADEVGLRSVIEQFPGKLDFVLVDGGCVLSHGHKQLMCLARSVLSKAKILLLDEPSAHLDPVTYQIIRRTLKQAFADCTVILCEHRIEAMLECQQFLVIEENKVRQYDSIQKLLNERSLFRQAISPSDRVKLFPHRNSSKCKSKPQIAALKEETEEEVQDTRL

Row | Compound | effect on co-immunoprecipitation between P31-43 and CFTR (CFTR) | effect on P31-43-induced reduction of BECN1, hVps34, UVRAG, Rab5 and Rab7 (Caco-2 cells; lost if 3-MA or CFTR inhibitor added) | presence in CFTR immunoprecipitates from early endosomal protein fractions (CFTR) | interaction (co-immunoprecipitation) with CFTR (CFTR; 1 h with biotinylated peptides) | co-immunoprecipitation with CFTR in clathrin+ EEA1− plasma membrane protein fractions (CFTR; after 5 min incubation) | Rab5 and Rab7 levels in endosomal protein fractions (Caco-2 cells) | total cellular abundance of BECN1, hVps34 and UVRAG (Caco-2 cells)
1 | CC(C)(C)c1cc(C(C)(C)C)c(NC(=O)c2c[nH]c3ccccc3c2=O)cc1O [VX-770, N-(2,4-di-tert-butyl-5-hydroxyphenyl)-4-oxo-1,4-dihydroquinoline-3-carboxamide] | prevented the co-immunoprecipitation between P31-43 and CFTR | counteracted |  |  |  |  | 
2 | α-gliadin peptide LGQQQPFPPQQPY (SEQ ID 1), induces an enterocyte stress response (P31-43 sequence of alpha-gliadin) |  |  | revealed the presence of biotinylated P31-43 | co-immunoprecipitated with CFTR | co-immunoprecipitated | decreased | reduced the total cellular abundance
